{
  "source": "patent US11591596B2",
  "about": "“Compounds and compositions including phosphorothioated oligodeoxynucleotide, and methods of use thereof” (City of Hope, priority 2015, dated 2023)",
  "key": {"[1]": {"test_system": "CML cells in SCLtTA/BCR-ABL mice", "experiment": "In vivo treatment of SCLtTA/BCR-ABL mice", "parameters": "species or system mouse", "settings": "3 weeks, compared with NIL+SCR", "protocol": "SCLtTA/BCR-ABL mice were treated with CpG-miR-126 inhibitor (5 mg/kg, every other day, iv injection), SCR (5 mg/kg, every other day, iv injection), NIL (50 mg/kg, daily by garage)+SCR, NIL+miR-126 inhibitor for 3 weeks and then the remaining CML cells in the PB (FIG. 13A), BM (FIG. 13C) and spleen (FIG. 13D) were analyzed.\nFIGS. 14A-D are scatter plots showing reduced CML LSK and LSC observed in the bone marrow (BM) (FIGS. 14A, 14C) and spleen (FIGS. 14B, 14D) of the mice treated with NIL+miR126 inhibitor compared with the mice treated with NIL+SCR. SCLtTA/BCR-ABL mice were treated with CpG-miR-126 inhibitor, SCR, NIL+SCR, NIL+miR-126 inhibitor for 3 weeks and then the remaining CML LSK primitive cells and LSC in the BM and spleen were analyzed.\nSCLtTA/BCR-ABL mice were treated with CpG-miR-126 inhibitor (5 mg/kg, every other day, iv injection), SCR (5 mg/kg, every other day, iv injection), NIL (50 mg/kg, daily by garage)+SCR, NIL+miR-126 inhibitor for 3 weeks and then the remaining CML cells in the PB, BM and spleen were analyzed. […] The effect of CpG-anti-miR-126 on growth of primary AML LSC and therapeutic response in vivo is still ongoing. These observations indicate that blocking of miR-126 by a myeloid cell-specific CpG-anti-miR-126 ODN inhibitor, among other compounds of the present disclosure, is very effective, and therefore represents a novel therapeutic method targeting miRNA in leukemia and other types of cancer disclosed herein."}, "[2]": {"test_system": "long term hematopoietic stem cells (LTHSC, Lin-Sca-1+c-kit+Fit3-CD150+CD48−) from normal and CML mouse", "experiment": "Cell cycling of murine LTHSC by EDU/DAPi staining", "type": "cell-based", "settings": "500 nM, compared with the CpG-Scr", "protocol": "Normal (NL) and CML murine LTHSC (Lin-Sca-1+Kit+Fit3− CD150+CD48− cells) were sorted and then treated with 500 nm CpG-miR126 inhibitor or CpG-SCR for 72 hours, then cell cycling was analyzed by EDU/DAPi staining."}, "miR126 [3]": {"test_system": "miR126", "experiment": "miRNA126 expression in NL/CB, AML and CML CD34+ cells by Q-RT-PCR", "type": "cell-based, human", "settings": "500 nM, 24 hours; primary patients' AML and CML CD34+ cells", "protocol": "FIG. 5 is a bar graph showing the expression of miRNA 126 in NL/CB, AML and CML CD34+ cells. Normal, cord blood, AML and CML CD34+ cells were cultured with CpG-scramble RNA (500 nM) and CpG-miR 126 inhibitor-Cy3 (500 nM) for 24 hours. miR126 and RNU44 (control) expression was analyzed by q-RT-PCR. The miR126 expression levels were normalized to RNU44 and calculated by using the comparative 2^−ΔΔct method.\n(§1) Normal, cord blood, AML and CML CD34+ cells were cultured with CpG-scramble RNA (500 nM) and CpG-anti-miR126 inhibitor-Cy3 (500 nM) for 24 hours, and then miR126 and RNU44 (ctrl) expression in these cells were analyzed by Q-RT-PCR (FIG. 5). The miR126 expression levels were normalized to RNU44 and calculated by using the comparative 2^−ΔΔCt method."}, "[4]": {"test_system": "Normal, cord blood, AML and CML CD34+ cells", "experiment": "Uptake of CpG-anti-miR126 inhibitor-Cy3 in primary CD34+ cells, Cy3 by flow cytometry", "type": "cell-based, human", "settings": "500 nM; primary patients' AML and CML CD34+ cells", "protocol": "FIGS. 2A-2D are flow cytometry histograms showing results of uptake tests in normal, cord blood, acute myeloid leukemia (AML), and chronic myeloid leukemia (CML) CD34+ cells. Normal (NL), cord blood (CB), AML and CML34+ cells were cultured with CpG-scramble RNA (500 nM) and CpG-miR126 inhibitor-Cy3 (500 nm) for 16 hours. FIG. 2A is a histogram showing uptake in NL/CB cells with 600 CpG siRNA. FIG. 2B is a histogram showing NL/CB cells with 500 CpG-siRNA. FIG. 2C is a histogram showing uptake in AML cells. FIG. 2D is a histogram showing uptake in CML cells. Uptake was measured by Cy3 expression in these cells by flow cytometry.\nNormal, cord blood, AML and CML CD34+ cells were cultured with CpG-anti-miR126 inhibitor-Cy3 or anti-miR126 inhibitor-Cy3 for 16 hours, and the uptake was measured by Cy3 expression in the cells by flow cytometry (FIGS. 2A-2D). All tested cells internalized CpG-anti-miR126-Cy3 but not the anti-miR126-Cy3 with high efficiency.\nas §1"}, "miR126 [5]": {"test_system": "miR126", "experiment": "miR126 expression in CML CD34+CD38+ committed and CD34+CD38- primitive progenitors by q-RT-PCR", "type": "cell-based, human", "settings": "500 nM", "protocol": "CML CD34+CD38+ committed and CD34+CD38− primitive progenitors were cultured with CpG-scramble RNA (500 nM) or CpG-miR126 inhibitor (500 nM) for 36 hours and then miR126 and RNU44 (control) expression in these cells were analyzed by q-RT-PCR. The miR126 expression levels were normalized to RNU44 and calculated by using the comparative 2^−ΔΔCt method.\nCML CD34+, CD34+CD38+ committed and CD34+CD38− primitive progenitors were cultured with CpG-scramble RNA (500 nM), CpG-anti-miR126 inhibitor (500 nM), CpG-scramble RNA (500 nM)+Nilotinib (NIL, 5 uM), and CpG-anti-miR126 inhibitor (500 nM)+NIL (5 uM) for 72 hours and then cell cycling and apoptosis were analyzed by EDU/DAPi and Annexin V/DAPi staining."}, "[6]": {"settings": "5 mg/kg every other day iv + NIL 50 mg/kg daily"}},
  "data": [
    {"substance": "5′ G*G*T GCA TCG ATG CAGG*G*G* G*G (SEQ ID NO: 1) xxxxx mCmGmC mAmUmU mAmUmU mAmCmU mCmAmC mGmGmU mAmCmG mA (SEQ ID NO: 17) 3′ [CpG-anti-miR126]", "values": [
      {"measurement": "CML white blood cells in the PB", "setting": "[1]; [6]", "result": "Reduced CML white blood cells"},
      {"measurement": "spleen weight", "setting": "[1]; [6]", "result": "Reduced spleen weight"},
      {"measurement": "CML LSK in the BM and spleen", "setting": "[1]; with NIL", "result": "Reduced"},
      {"measurement": "CML LTHSC in the BM and spleen", "setting": "[1]; with NIL", "result": "Reduced"},
      {"measurement": "CML cells in the BM and spleen", "setting": "[1]; with NIL", "result": "Reduced"},
      {"measurement": "cell-cycle entry", "setting": "[2]", "result": "increased cell-cycle entry"},
      {"measurement": "reduction of miR126 expression", "setting": "miR126 [3]", "result": "60%-90%"},
      {"measurement": "internalization by primary cells", "setting": "[4]", "result": "quickly internalized"},
      {"measurement": "reduction of miR126 expression", "setting": "miR126 [5]", "result": "More than 90%"}
    ]}
  ]
}
